Source: article PMC4106133 (Journal of medicinal chemistry, 2013)

Experiments:
α4β2 nAChR [1] = target: T1, α4β2 nAChR (Rattus norvegicus, UniProt P09483+P12390); test: [3H]epibatidine binding to α4β2 nAChR in cell membranes; conditions: binding selectivity for α4β2 over α3β4
α3β4α5 nAChR = test: binding affinity against α3β4α5 nAChR
α4β2 nAChR [2] = target: T1, α4β2 nAChR; test: nAChR functional assay, membrane potential change; type: cell-based
α3β4 nAChR = α3β4 nAChR (Rattus norvegicus, UniProt P04757+P12392); test: nAChR functional assay, membrane potential change; type: cell-based
Sequence of α3β4 nAChR (P04757 26-499): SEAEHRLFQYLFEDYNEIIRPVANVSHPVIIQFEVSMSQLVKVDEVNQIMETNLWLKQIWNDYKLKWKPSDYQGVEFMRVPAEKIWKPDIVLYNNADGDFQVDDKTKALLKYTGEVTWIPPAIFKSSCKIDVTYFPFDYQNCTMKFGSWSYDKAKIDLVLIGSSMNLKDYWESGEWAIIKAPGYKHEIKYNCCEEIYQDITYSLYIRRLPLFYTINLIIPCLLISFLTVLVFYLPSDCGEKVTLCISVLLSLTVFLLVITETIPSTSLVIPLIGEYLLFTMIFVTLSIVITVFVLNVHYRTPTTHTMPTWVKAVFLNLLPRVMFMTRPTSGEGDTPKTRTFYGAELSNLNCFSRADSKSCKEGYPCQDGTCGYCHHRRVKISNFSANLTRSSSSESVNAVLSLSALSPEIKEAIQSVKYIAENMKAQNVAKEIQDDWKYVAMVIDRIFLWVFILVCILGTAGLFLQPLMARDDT
Sequence of α3β4 nAChR (P12392 21-495): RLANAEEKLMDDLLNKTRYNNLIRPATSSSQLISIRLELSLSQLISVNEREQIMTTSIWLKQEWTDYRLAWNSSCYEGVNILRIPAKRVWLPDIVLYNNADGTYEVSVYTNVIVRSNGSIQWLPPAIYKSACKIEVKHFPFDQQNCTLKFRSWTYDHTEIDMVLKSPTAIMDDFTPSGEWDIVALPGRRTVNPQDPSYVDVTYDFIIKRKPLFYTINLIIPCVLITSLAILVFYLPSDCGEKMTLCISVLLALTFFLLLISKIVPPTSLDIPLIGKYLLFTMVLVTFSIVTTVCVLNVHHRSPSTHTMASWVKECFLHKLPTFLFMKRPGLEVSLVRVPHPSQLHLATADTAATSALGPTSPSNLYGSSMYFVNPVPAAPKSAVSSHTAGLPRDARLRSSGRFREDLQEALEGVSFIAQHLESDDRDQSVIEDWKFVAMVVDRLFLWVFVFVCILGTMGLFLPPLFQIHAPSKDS

T1 sequence (P09483 31-630): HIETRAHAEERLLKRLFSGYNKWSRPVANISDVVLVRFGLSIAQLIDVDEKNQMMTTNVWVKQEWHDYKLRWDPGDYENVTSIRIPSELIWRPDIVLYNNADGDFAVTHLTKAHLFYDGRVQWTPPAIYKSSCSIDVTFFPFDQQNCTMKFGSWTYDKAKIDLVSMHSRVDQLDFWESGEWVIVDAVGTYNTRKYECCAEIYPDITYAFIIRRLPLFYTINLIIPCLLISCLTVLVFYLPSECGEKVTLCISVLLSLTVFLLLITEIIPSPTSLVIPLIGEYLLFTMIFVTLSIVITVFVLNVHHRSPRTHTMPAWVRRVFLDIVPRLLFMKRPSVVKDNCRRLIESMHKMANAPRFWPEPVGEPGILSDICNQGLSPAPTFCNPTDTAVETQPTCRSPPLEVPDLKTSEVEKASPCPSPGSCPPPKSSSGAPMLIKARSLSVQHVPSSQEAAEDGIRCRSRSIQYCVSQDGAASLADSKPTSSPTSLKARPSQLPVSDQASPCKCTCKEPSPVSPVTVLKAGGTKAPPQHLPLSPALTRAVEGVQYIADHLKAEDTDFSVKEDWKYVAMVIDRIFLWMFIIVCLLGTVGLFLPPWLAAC
T1 sequence (P12390 25-500): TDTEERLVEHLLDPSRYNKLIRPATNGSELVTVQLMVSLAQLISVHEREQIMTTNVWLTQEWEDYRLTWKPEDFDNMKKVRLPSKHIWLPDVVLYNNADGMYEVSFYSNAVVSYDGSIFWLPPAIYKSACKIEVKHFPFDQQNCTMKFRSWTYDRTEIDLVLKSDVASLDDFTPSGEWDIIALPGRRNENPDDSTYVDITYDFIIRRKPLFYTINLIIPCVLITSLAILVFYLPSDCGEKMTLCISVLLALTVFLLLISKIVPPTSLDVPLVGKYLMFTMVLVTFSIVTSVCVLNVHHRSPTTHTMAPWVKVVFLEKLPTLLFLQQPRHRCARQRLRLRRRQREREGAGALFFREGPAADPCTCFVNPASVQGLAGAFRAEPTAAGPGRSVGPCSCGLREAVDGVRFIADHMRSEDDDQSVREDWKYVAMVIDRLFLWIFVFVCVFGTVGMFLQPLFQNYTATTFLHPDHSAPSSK

SMILES	selectivity (fold) (α3β4 Ki/α4β2 Ki) (α4β2 nAChR [1])	binding affinity Kd/Ki against α3β4α5 nAChR (α3β4α5 nAChR)	agonist activity at α4β2 nAChR (α4β2 nAChR [2]; membrane potential change, HEK cells, up to 10 µM)	mode of inhibition of nicotine's activity (α4β2 nAChR [2]; nicotine dose response curves with various concentrations of 301)	inverse agonist activity (α4β2 nAChR [2]; α4β2-containing cells, very high concentrations)	IC50 (α3β4 nAChR)	agonist activity at α3β4 nAChR (α3β4 nAChR; membrane potential change, HEK cells)	Emax (α4β2 nAChR [2]; HEK293, read-out: nicotine maximum stimulation)
CC(C)(C)C1CCC(CN2C(=N)N(CCCC[C@H]3CNC(=N)N3CCc3cccnc3)C[C@H]2Cc2ccccc2)CC1 (stereo partly drawn) [Compound 301, (R)-4-Benzyl-3-((4-tert-butylcyclohexyl)methyl)-1-(4-((S)-2-imino-3-(2-(pyridin-3-yl)ethyl)imidazolidin-4-yl)butyl)imidazolidin-2-imine]	~500 fold	9.062 µM	no agonist activity	noncompetitive	potential inverse agonist activity	> 10 µM	no agonist activity	
CN1CCC[C@H]1c1cccnc1 [nicotine, reference compound]								100%
